Assay results published in patent US4347319A, “Microbiological epoxidation process” (priority 1980, dated 1982).
“Also recorded” adds a separate entry of the source.

Assays:
Format in all cases: biochemical
[1] = tested on: cell-free particulate fractions derived from the methylotrophic microorganisms; assay: Inhibition of conversion of C3 -C6 n-alkanes to sec. alcohols; conditions: oxygen and NADH present
From the text: The conditions for preparing the cell suspensions or the cell-free particulate fractions from methane-grown methylotroph microorganisms is the same as described above.

[2] = tested on: purified secondary alcohol dehydrogenase from Pichia sp. NRRL Y-11,328; assay: Inhibitors of purified yeast SADH; conditions: primary alcohols tested at 10^-3 M
Description: Large scale cultures of Pichia sp. NRRL Y-11,328 were grown with aeration at 30° C. in a 14-liter New Brunswick f fermentor in a mineral salt medium containing methanol (0.4%, v/v) as the sole carbon source. The cells (200 g., wet weight) were suspended in […] sodium phosphate buffer, pH 7.0, containing 1 mM dithiothreitol (buffer A), and crude extracts were prepared as described previously. To the crude extracts, 18 ml. of protamine sulfate solution [2% solution in 0.1 M tris (hydroxymethyl) aminomethane (tris) base] was added dropwise with continuous stirring. After standing for 30 min., the extracts were centrifuged at 20,000×g. for 60 min. The supernatant solution was fractionated with solid ammonium sulfate. Extracts were brought to 50% of saturation with respect to ammonium sulfate by addition of 313 g. of the salt per liter of extract. Precipitated proteins was removed by centrifugation, and 137 g. of ammonium sulfate was added per liter of the supernatant liquid to bring it to 70% of saturation. Material precipitating between 50 and 70% of saturation was collected by centrifugation and dissolved in buffer A. This preparation was dialyzed overnight against buffer A, and the dialyzed material was applied to a DEAE-cellulose column (5×40 cm) that had been equilibrated with buffer A. The sample was washed with 200 ml. of buffer A and eluted with 2 liters of buffer A that contained NaCl in a linear gradient running from a concentration of 0 to 0.5 M. Fractions of 15 ml. were collected. Fractions containing secondary alcohol dehydrogenase activity were pooled and were termed DEAE-cellulose eluate. The DEAE-cellulose eluate was concentrated by ammonium sulfate fractionation.
Secondary alcohol dehydrogenase activity was measured spectrophotometrically at 340 nm with a NAD^+ as an electron acceptor. The reaction mixture, in a total 3.0 ml., contained 50 mM phosphate buffer, pH 8,0, 5 μ moles NAD^+, crude extracts, and substrate. The reactions were started by addition of 100 µl of 0.1 M substrate and the rate of NAD^+ reduction was measured. Protein concentration was determined by the method of Lowry et al.
Various primary alcohols not oxidized by secondary alcohol dehydrogenase were tested as potential inhibitors of enzyme activity.

[3] = tested on: purified secondary alcohol dehydrogenase (SADH) from Pseudomonas sp. ATCC 21439; assay: Effect of metal-chelating agents and thio reagents on purified SADH; conditions: final concentration of 1 mM; measured spectrofluorometrically
Description: Secondary alcohol dehydrogenase (SADH) from an obligate methanol utilizer, Pseudomonas sp. ATCC 21439 was purified as follows. […] 0.05 M sodium phosphate buffer, pH 7.0 with 0.5 mM dithiothretol (buffer A) and were disrupted sonically (5×1 min.). The crude extract was separated by centrifugation. The crude extract was heat-treated at 50° C. in a water bath for 10 minutes. The resulting precipitate was removed by centrifugation. To the supernatant solution, 25 ml of protamine sulfate solution (2% solution in 0.1 M Tris base) was added dropwise with continuous stirring. After standing for 30 minutes, the extract was centrifuged. The supernatant solution was fractionated with solid ammonium sulfate. […] This DEAE-cellulose eluate was concentrated by ammonium sulfate fractionation. Material precipitating between 30 and 50% ammonium sulfate saturation was collected by centrifugation and dialyzed overnight against A. This fraction was further washed and filtered through an Amicon unit with XM 50 membrane. The concentrated fraction (6 ml) inside the Amicon unit was applied to an Affi-Gel Blue column (0.8 cm×18 cm) which had been equilibrated with buffer A for affinity chromatography. The column was washed overnight with buffer A (0.18 ml./min.) and then was eluted with buffer A containing 5 mM NAD. Each 1 ml. fraction was collected.
The purified secondary alcohol dehydrogenase enzyme (SADH) may be used directly for converting C3 -C6 secondary alcohols to the corresponding methyl ketones by the procedures described above; however, a source of NAD^+ must be added to the reaction medium. One can determine the NAD-linked secondary alcohol dehydrogenase activity with a fluorescence spectrophotometer (Perkin Elmer, Model MPF 44A) by following the formation of reduced NAD (Ex 340 nm, Em 460 nm). The assay system (3 ml.) will typically contain: sodium phosphate buffer pH 7.0, 150 μmol; NAD 1.0 μmol; a given amount of enzyme preparation; and 20 μmol secondary alcohol. The reaction is started by the addition of secondary alcohol. One unit of SADH enzyme activity represents the reduction of one nmole NAD per minute.
The effect of metal-chelating agents and chioreagents on the activity of the purified SADH enzyme were studied. […] The possibility of ethanol or n-propanol as an inhibitor was studied.

[4] = tested on: P(40) particulate fraction of Methylosinus sp. (CRL-15, NRRL B-11,202); assay: Effect of inhibitors on propylene epoxidation and methane hydroxylation; conditions: inhibitor 10^-3 M; P(40) fraction
Description: (§1) The oxidation of methane and propylene by particulate [(P)40 and (P)80] fractions and soluble [S(80)] fraction was measured at 30° C. by estimating the production of methanol and propylene oxide, respectively. The reaction mixtures contained in […]: 150 mM potassium phosphate buffer, pH 7.0 containing 5 mM MgCl2 b, 0.6 ml; 10μ moles NADH, and cellular fraction.
(§2) Reaction mixtures were contained in 10 ml vials at 4° C. Vials were sealed with rubber caps. The gaseous phase in the vials was removed using vacuum and then was replaced with a gas mixture of methane or propylene and oxygen at a 1:1, v/v ratio. Oxidation of other gaseous n-alkanes and n-alkanes was examined as described above. For liquid substrates, 10 μl of substrate was used directly. Vials were then incubated at 30° C. on a rotary shaker at 200 RPM.
It has been reported that the oxidation of methane by cell suspensions of methane-utilizing bacteria was inhibited by various metal-binding or metal-chelating agents (Patel et al., J. Bacteriol. 126: 1017-1019 (1976)). […] (CRL-15, NRRL B-11,202) was examined.

[5] = tested on: P(40) particulate fraction of Methylosinus sp. (CRL-15, NRRL B-11,202); assay: Effect of metals on propylene epoxidation and methane hydroxylation; conditions: metal 10^-3 M, P(40) fraction
Description: as §1
as §2, with “directly.” for “directly. Vials were then incubated at 30° C. on a rotary shaker at 200 RPM.”
Since the methane mono-oxygenase from methane-utlizing bacteria is a copper or iron-containing protein (Tonge et al., J. Biochem., 161: 333-344 (1977)), we have examined the effect of copper and iron salts on the oxidation of methane and propylene by the P(40) particulate fraction of Methylosinus sp. (CRL-15, NRRL B-11,202). The rate of hydroxylation of methane to methanol and epoxidation of propylene to propylene oxide was increased twofold in the presence of added copper salts (Table XII).

[6] = tested on: cell-free soluble extracts of C1 -utilizing microbes (secondary alcohol dehydrogenase); assay: Cofactor requirement of cell-free SADH systems
Description: Catalytic activity was also assayed by fluorescence spectrophotometry.

[7] = tested on: purified secondary alcohol dehydrogenase from Pichia sp. NRRL Y-11,328; assay: Substrate specificity, electron acceptor and stoichiometry of purified yeast SADH

c1cnc2c(c1)ccc1cccnc12 [1,10-Phenanthroline]
inhibition of conversion of n-alkanes to sec. alcohols [1]: inhibited | inhibition of secondary alcohol dehydrogenase activity [2]: strongly inhibited | % inhibition of SADH activity [3]: 95% | % Inhibition, Methane-Hydroxylating Activity [4]: 90% | % Inhibition, Propylene-Epoxidizing Activity [4]: 93%

Oc1cccc2cccnc12 [8-Hydroxyquinoline]
inhibition of conversion of n-alkanes to sec. alcohols [1]: inhibited | % Inhibition, Methane-Hydroxylating Activity [4]: 80% | % Inhibition, Propylene-Epoxidizing Activity [4]: 75%

O=S(=O)([O-])[O-].[Cu+2] [Cupric Sulfate]
Methane-Oxidizing Activity ([5]; control 4.0): 7.1 μmoles/hr/mg protein | Propylene-Oxidizing Activity ([5]; control […]): 9.0 μmoles/hr/mg protein | inhibition of secondary alcohol dehydrogenase activity [2]: inhibited

Cc1cc2nc3c(=O)[nH]c(=O)nc-3n(C[C@H](O)[C@H](O)[C@H](O)COP(=O)(O)OP(=O)(O)OC[C@H]3O[C@@H](n4cnc5c(N)ncnc54)[C@H](O)[C@@H]3O)c2cc1C [FAD, flavin adenine dinucleotide]
effectiveness as cofactor for oxidation of secondary alcohols [6]: not effective | electron acceptor / carrier [7]: could not act as electron carrier

c1c[nH]cn1 [Imidazole]
inhibition of secondary alcohol dehydrogenase activity [2]: strongly inhibited

NC(=O)C1=CN([C@@H]2O[C@H](COP(=O)(O)OP(=O)(O)OC[C@H]3O[C@@H](n4cnc5c(N)ncnc54)[C@H](OP(=O)(O)O)[C@@H]3O)[C@@H](O)[C@H]2O)C=CC1 [NAD(P)H]
effectiveness as cofactor for oxidation of secondary alcohols [6]: not effective

NC(=O)c1ccc[n+]([C@@H]2O[C@H](COP(=O)([O-])OP(=O)(O)OC[C@H]3O[C@@H](n4cnc5c(N)ncnc54)[C@H](O)[C@@H]3O)[C@@H](O)[C@H]2O)c1 [NAD, Nicotinamide adenine dinucleotide]
effectiveness as cofactor for oxidation of secondary alcohols [6]: requirement; also recorded: required | electron acceptor / carrier [7]: required

NC(=O)c1ccc[n+]([C@@H]2O[C@H](COP(=O)([O-])OP(=O)(O)OC[C@H]3O[C@@H](n4cnc5c(N)ncnc54)[C@H](OP(=O)(O)O)[C@@H]3O)[C@@H](O)[C@H]2O)c1 [NADP]
effectiveness as cofactor for oxidation of secondary alcohols [6]: not effective | electron acceptor / carrier [7]: could not act as electron carrier

NNC(N)=S [Thiosemicarbazide]
inhibition of conversion of n-alkanes to sec. alcohols [1]: inhibited | % Inhibition, Methane-Hydroxylating Activity [4]: 100% | % Inhibition, Propylene-Epoxidizing Activity [4]: 97%

NC(N)=S [Thiourea]
inhibition of conversion of n-alkanes to sec. alcohols [1]: inhibited | % inhibition of SADH activity [3]: 0% | % Inhibition, Methane-Hydroxylating Activity [4]: 98% | % Inhibition, Propylene-Epoxidizing Activity [4]: 98%

O=C1C(Cl)=CC(=Nc2ccc(O)cc2)C=C1Cl [dichlorophenol indophenol]
effectiveness as cofactor for oxidation of secondary alcohols [6]: not effective | electron acceptor / carrier [7]: could not act as electron carrier

N[C@@H](CCC(=O)N[C@@H](CS)C(=O)NCC(=O)O)C(=O)O [glutathione]
effectiveness as cofactor for oxidation of secondary alcohols [6]: not effective | inhibition of secondary alcohol dehydrogenase activity [2]: strongly inhibited

N#C[S][Hg][S]C#N [mercuric thiocyanate]
inhibition of secondary alcohol dehydrogenase activity [2]: inhibited

O=C(O)c1cc[c]([Hg+])cc1.[OH-] [p-hydroxymercuribenzoate]
inhibition of secondary alcohol dehydrogenase activity [2]: strongly inhibited | % inhibition of SADH activity [3]: 100%

C[n+]1c2ccccc2nc2ccccc21 [phenazine methosulfate]
effectiveness as cofactor for oxidation of secondary alcohols [6]: not effective | electron acceptor / carrier [7]: could not act as electron carrier

O=[N+]([O-])[O-].[Ag+] [silver nitrate]
inhibition of secondary alcohol dehydrogenase activity [2]: inhibited

c1ccc(-c2ccccn2)nc1 [α,α-Bipyridyl]
inhibition of conversion of n-alkanes to sec. alcohols [1]: inhibited | % inhibition of SADH activity [3]: 70% | % Inhibition, Methane-Hydroxylating Activity [4]: 99% | % Inhibition, Propylene-Epoxidizing Activity [4]: 98%
